# Values joined by “and” are separate entries in the source; they are usually repeats but may differ in a detail not shown here. Equal entries are not always repeated. Where two headings read alike, the source gives them in different places.
# Columns and labels:
# Format in all cases: in vivo
# [1] = tested on: termites (Reticulitermes flavipes (Kollar)); test: First experiment: test arena with three monitors, treated non-edible foraging matrix disc in one monitor
# Text: (§1) Data from two sets of experiments are included. In the first set of experiments, a total of 3,000 termites were used (2,970 workers and 30 soldiers) in all three replicates. In the second set of experiments, 3,000 termites were used in 4 replicates and 1,400 termites (1,386 workers and 14 soldiers) were used in two replicates for a total of six replicates. Fewer termites from 2 colonies were used because we could not collect enough to complete the replicates if a total of 3000 termites were used. The termites (Reticulitermes flavipes (Kollar)) were field collected from field colonies, separated from debris, and held in the laboratory at the USDA (United States Department of Agriculture) for no more than 14 days before introduction into a test arena for each experimental block. Termites from a different colony were used for each replicate.
# (§2) The test arena consisted of Plexiglas sides (45 cm long, by 30 cm wide by 5.5 cm high) taped to a glass bottom (45 cm long, by 30 cm wide, by 0.6 cm high) with clear packing tape, manufactured by Crystal Clear, Manco Inc., Avon, Ohio. The Plexiglas sides were assembled by joining pieces with methylene chloride. Before the Plexiglas sides were taped to the glass bottom, the sides were baked in an oven at 40+/−2° C. for 24 hours to ensure that any volatiles caused by the methylene chloride were removed.
# (§3) Builders sand from Unified Classification SP, O'Steen Bros., Inc., of Gainesville, Fla., was oven dried at 60+/−2° C. for at least 24 hours in metal pans. The sand was cooled and sieved using a sieve manufactured from Fisher Scientific Co., USA sieve no. 25, having openings of approximately 0.0278 inches each. The sieve was used to remove large pieces of debris. Two thousand five hundred grams (+/−1 g) of sand were poured into the arena and mixed thoroughly with 250 ml of double filtered, de-ionized water, which brought the moisture content of the sand to 10%. The sand was tamped and leveled.
# (§4) Three monitoring stations were placed on top of the moistened builder's sand. The monitors were made of one roll of corrugated cardboard (100 cm by 6.5 cm) that was moistened and stacked into a white PVC coupler having an inner diameter of approximately 7 cm and being approximately 7.3 cm high, manufactured from Lasco of Brownsville, Tenn.
# (§5) The non-edible foraging matrix treated with toxicant and used for the testing was a loamy, siliceous, thermic, arenic paleudults soil, which was a common sandy loam native soil from Central Florida. This native soil was initially oven dried at 150+/−2° C. for at least 24 hours, then cooled, then sifted to remove large pieces of organic debris. After treatment with a toxicant, the treated non-edible foraging matrix was formed into a disc for insertion into the monitors after termite activity occurred. The color contrast between the builder's sand, which was light honey color, and the native non-edible foraging matrix, which was a dark brown, was enough to see termites move portions of the treated soil particles from the discs into the tunnels.
# In both sets of experiments, three different non-edible foraging matrix treatment applications were prepared using novel selected amounts of termite treatment chemicals. The difference between the first experiment and the second experiment was the rates used. […] The second application had the non-edible foraging matrix sample treated with 250 ppm of chlorfenapyr, a version entitled Phantom from American Cyanamid of Princeton, N.J. A third application had the non-edible foraging matrix treated with 125 ppm of fipronil, a version entitled Termidor, from Rhone-Poulenc of Research Triangle, N.C.
# In both experimental set ups, controls were treated with filtered and de-ionized water. The treated non-edible foraging matrix was air dried for 7 days and stored in sealed plastic bags until ready for use. […]
# [2] = tested on: termites (Reticulitermes flavipes (Kollar)); test: Second experiment: test arena with treated foraging matrix disc at lower rates, termite survival in arenas; conditions: for Time for cessation of termite activity: second experiment, activity in the monitors not detected
# Text: as §1, §2, §3, §4, §5
# The second application had the non-edible foraging matrix sample treated with 2.5 and 25.0 ppm of chlofenapyr, a version entitled Phantom from American Cyanamid of Princeton, N.J. A third application had the non-edible foraging matrix treated with 1.25 and 12.5 ppm of fipronil, a version entitled Termidor, from Rhone-Poulenc of Research Triangle, N.C. It is important to note that the rates used were approximately 10 and 100 times less than the rates use in the first experiment and are also 10 to 100 times less than the rates listed or proposed on the pesticide labels. Thus, the rates used in this experiment was not used for the intended purpose of the chemicals, which was to immediately kill the termites by creating a chemical barrier completely around the structure.
# In both experimental set ups, controls were treated with filtered and de-ionized water. […]
# subterranean termites [3] = conditions: embodiment 2
# Experimental: In the first experiment for embodiment two, oven dried Alachua fine soil was treated with approximately 125.0 ppm chlorfenapyr as the non-edible foraging matrix 550. The mixture 550 was poured into the opening 542 and wet to a moisture level of 10%. The amount of mixture 550 added to opening 542 was recorded for each replicate. Circular plastic containers having a diameter of approximately 11.5 cm by approximately 10 cm thick were filled with approximately 514 g of builder's sand and wet to a moisture level of approximately 10%. Embodiment 2 was inserted into the builder's sand in the plastic cup, 500 subterranean termites were added and the termites were allowed to tunnel for 3 weeks. After 3 weeks, the plastic container setup was disassembled. The number of live termites in the experimental unit was recorded. The amount of mixture 550 displaced from embodiment 2 was measured and recorded. Data were analyzed with a comparison test, between an untreated control sample and four replications(experimental units) of chlorfenatyr(slow acting toxicant).
# Alive refers to number of termites alive after three(3) weeks exposure. %Mortality refers to percentage of termites that died after three(3) weeks exposure. Soil Moved(g) refers to total amount soil removed by the termites per each replication(per experimental unit). […] An average of 99.95% of the termites in treated units died, compared with 8.8% mortality in the control unit. […] Total untreated mixture 550 moved from embodiment 2 to the surrounding area was approximately 3.93 g, compared with an average of approximately 1.49 g of mixture 550 treated with approximately 125.0 ppm chlorfenapyr.
# (§6) In the second experiment, mixture 550 was tested at a concentration of approximately 12.5 ppm chlorfenapyr. Experimental procedure was identical to what is listed above.
# subterranean termites [4] = conditions: embodiment 3
# Experimental: In the first experiment for embodiment 3, oven dried Alachua fine soil was treated with approximately 125.0 ppm chlorfenapyr as the non-edible foraging matrix 550. The mixture 550 was poured into the opening 542 and wet to a moisture level of 10%. The amount of mixture 550 added to opening 542 was recorded for each replicate. Plastic containers (approximately 11.5 cm diameter, approximately 10 cm high) were filled with approximately 514 g of builder's sand and wet to a moisture level of approximately 10%. Embodiment 3 was assembled and inserted into the builder's sand in the plastic cup, 500 subterranean termites were added and the termites were allowed to tunnel for 3 weeks. After 3 weeks, the plastic container setup was disassembled. The number of live termites in the experimental unit was recorded. The amount of mixture 550 displaced from embodiment 2 was measured and recorded.
# Alive refers to number of termites alive after three(3) weeks exposure. %Mortality refers to percentage of termites that died after three(3) weeks exposure. Soil Moved(g) refers to total amount soil removed by the termites per each replication(per experimental unit).
# as §6
# [5] = approximately 12.5 ppm chlorfenapyr
# [6] = approximately 125.0 ppm chlorfenapyr
compound,measurement,setting,value
"O=[N+]([O-])NC1=NCCN1Cc1ccc(Cl)nc1 [Imidacloprid, imidacloprid]",Termites in the monitors,"[1]; 50 ppm imidacloprid, first experiment, summary of Table 1",54 termites
same,Mean ± SE number of termites in monitors,"[1]; foraging matrix 50 ppm imidacloprid, week 1",82.0 ± 2.7
same,Mean ± SE number of termites in monitors,"[1]; foraging matrix 50 ppm imidacloprid, week 2",67.5 ± 0.1
same,Mean ± SE number of termites in monitors,"[1]; foraging matrix 50 ppm imidacloprid, week 3",45.7 ± 14.9
same,Mean ± SE number of termites in monitors,"[1]; foraging matrix 50 ppm imidacloprid, week 4",13.7 ± 2.9
same,Mean ± SE number of termites in monitors,"[1]; foraging matrix 50 ppm imidacloprid, week 5",8.0 ± 3.7
same,Mean ± SE number of termites in monitors,"[1]; foraging matrix 50 ppm imidacloprid, week 6",3.2 ± 3.0
same,Mean ± SE number of termites in monitors,"[1]; foraging matrix 50 ppm imidacloprid, week 7",1.4 ± 1.4
same,Mean ± SE number of termites in monitors,"[1]; foraging matrix 50 ppm imidacloprid, week 8",1.8 ± 0.9
same,percent survival,"[2]; imidacloprid 0.5 and 5.0 ppm foraging matrix, 23% in untreated arenas",17%
same,Mean ± SE percent survival of termites,"[2]; imidacloprid 0.5 ppm foraging matrix, after 8 weeks",17.13 ± 11.61a %
same,Mean ± SE percent survival of termites,"[2]; imidacloprid 5.0 ppm foraging matrix, after 8 weeks",17.57 ± 9.36a %
same,Time for cessation of termite activity,[2],8 weeks
"N#Cc1nn(-c2c(Cl)cc(C(F)(F)F)cc2Cl)c(N)c1[S+]([O-])C(F)(F)F (stereo not drawn) [Fipronil, fipronil]",Mean ± SE number of termites in monitors,"[1]; foraging matrix 125 ppm fipronil, week 1",73.8 ± 11.1
same,Mean ± SE number of termites in monitors,"[1]; foraging matrix 125 ppm fipronil, week 2",44.3 ± 18.8
same,Mean ± SE number of termites in monitors,"[1]; foraging matrix 125 ppm fipronil, week 3",14.6 ± 8.0
same,Mean ± SE number of termites in monitors,"[1]; foraging matrix 125 ppm fipronil, week 4",6.4 ± 3.4
same,Mean ± SE number of termites in monitors,"[1]; foraging matrix 125 ppm fipronil, week 5",2.6 ± 1.6
same,Mean ± SE number of termites in monitors,"[1]; foraging matrix 125 ppm fipronil, week 6",0.3 ± 0.3
same,Mean ± SE number of termites in monitors,"[1]; foraging matrix 125 ppm fipronil, week 7",0 ± 0
same,Mean ± SE number of termites in monitors,"[1]; foraging matrix 125 ppm fipronil, week 8",0 ± 0
same,Mean ± SE percent survival of termites,"[2]; fipronil 1.25 ppm foraging matrix, after 5 weeks",0.51 ± 0.30b %
same,percent survival,"[2]; fipronil 12.5 and 1.25 ppm foraging matrix, 39% in untreated arenas",0.3-0.5%
same,Mean ± SE percent survival of termites,"[2]; fipronil 12.5 ppm foraging matrix, after 5 weeks",0.30 ± 0.29b %
same,Termite kill (in words),[2]; fipronil at 1.25 and 12.5 ppm,killed virtually all the termites
same,Time for cessation of termite activity,[2],5 weeks
"CCOCn1c(-c2ccc(Cl)cc2)c(C#N)c(Br)c1C(F)(F)F [Chlorfenapyr, chlorfenapyr]",Mean ± SE number of termites in monitors,"[1]; foraging matrix 250 ppm chlorfenapyr, week 1",100 ± 11.9
same,Mean ± SE number of termites in monitors,"[1]; foraging matrix 250 ppm chlorfenapyr, week 2",60.7 ± 12.9
same,Mean ± SE number of termites in monitors,"[1]; foraging matrix 250 ppm chlorfenapyr, week 3",21.3 ± 12.2
same,Mean ± SE number of termites in monitors,"[1]; foraging matrix 250 ppm chlorfenapyr, week 4",10.9 ± 7.6
same,Mean ± SE number of termites in monitors,"[1]; foraging matrix 250 ppm chlorfenapyr, week 5",3.5 ± 3.3
same,Mean ± SE number of termites in monitors,"[1]; foraging matrix 250 ppm chlorfenapyr, week 6",0.8 ± 0.8
same,Mean ± SE number of termites in monitors,"[1]; foraging matrix 250 ppm chlorfenapyr, week 7",0 ± 0
same,Mean ± SE number of termites in monitors,"[1]; foraging matrix 250 ppm chlorfenapyr, week 8",0 ± 0
same,Mean ± SE percent survival of termites,"[2]; chlorfenapyr 2.5 ppm foraging matrix, after 8 weeks",9.33 ± 5.05a^1%
same,Mean ± SE percent survival of termites,"[2]; chlorfenapyr 2.5 ppm foraging matrix, after 8 weeks, listed as chlorfenapyr",9.33%
same,Mean ± SE percent survival of termites,"[2]; chlorfenapyr 25.0 ppm foraging matrix, after 8 weeks",0.16 ± 0.16b %
same,Mean ± SE percent survival of termites,"[2]; chlorfenapyr 25.0 ppm foraging matrix, after 8 weeks, listed as chlorfenapyr",0.16%
same,Termite kill (in words),[2]; chlorfenapyr at 25 ppm,killed virtually all the termites
same,Time for cessation of termite activity,[2],8 weeks
same,"Amount of mixture 550 moved, treated compared with untreated",subterranean termites [3]; [5],no significant difference
same,Mortality compared with untreated replications,subterranean termites [3]; [5],significantly higher
same,Average percentage of termites in treated units that died,"subterranean termites [3]; approximately 12.5 ppm chlorfenapyr, approximately 13.2% in untreated control units",approximately 85.3%
same,"Amount of mixture 550 moved, treated compared with untreated",subterranean termites [3]; [6],significantly more of the untreated mixture 550 was moved
same,Mortality compared with untreated replications,subterranean termites [3]; [6],significantly higher
same,Average percentage of termites in treated units that died,"subterranean termites [3]; approximately 125.0 ppm chlorfenapyr, 3 weeks, 8.8% in control unit",99.95%
same,% Mortality,"subterranean termites [3]; approximately 125.0 ppm chlorfenapyr, after 3 weeks exposure, per replication",100.0% and 99.8%
same,"Amount of mixture 550 moved, 12.5 ppm compared with 125.0 ppm",subterranean termites [3]; chlorfenapyr 12.5 ppm vs 125.0 ppm,significantly more mixture 550 treated at 12.5 ppm was moved
same,"Mortality, approximately 125 ppm compared with approximately 12.5 ppm",subterranean termites [3]; chlorfenapyr 125 ppm vs 12.5 ppm,no significant differences
same,Alive (number of termites alive),"subterranean termites [4]; 125.0 ppm chlorfenapyr, 500 termites, after 3 weeks exposure, per replication",0
same,% Mortality,"subterranean termites [4]; 125.0 ppm chlorfenapyr, after 3 weeks exposure, per replication",100.0%
same,"Amount of mixture 550 moved, treated compared with untreated",subterranean termites [4]; [5],significantly less treated mixture 550 moved
same,Mortality compared with untreated controls,subterranean termites [4]; [5],no significant difference
same,% Mortality,"subterranean termites [4]; approximately 12.5 ppm chlorfenapyr, after 3 weeks exposure, per replication",100%
same,Average percentage of termites in treated units that died,"subterranean termites [4]; approximately 12.5 ppm chlorfenapyr, approximately 18.5% in untreated control units",approximately 37.7%
same,"Amount of mixture 550 moved, treated compared with untreated",subterranean termites [4]; [6],significantly more of the untreated mixture 550 was moved
same,Average percentage of termites in treated units that died,"subterranean termites [4]; approximately 125.0 ppm chlorfenapyr, approximately 9.6% in control unit",100.0%

# Reference: patent US6928770B2, “Alternating layer non-edible foraging matrix configurations for crawling arthropods” (priority 1999, dated 2005)
